#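 All cell lines were grown in 96-well plates and treated with compound for 48 hours. GI50 = concentration required for 50% inhibition of growth.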 Calls of active or inactive are those of the source. Cut-off read from the data, not from the text of the source: active = GI50 up to about 1.1 µM and inactive = higher.
# Key:
# Assay in all cases: NCI anticancer screen, dose series, 48 h
# 786-0 = tested on: 786-0
# A549 = tested on: A549
# ACHN = tested on: ACHN
# BT-549 = tested on: BT-549
# CAKI-1 = tested on: CAKI-1
# CCRF-CEM = tested on: CCRF-CEM
# COLO 205 = tested on: COLO 205
# DU-145 = tested on: DU-145
# EKVX = tested on: EKVX
# HCC 2998 = tested on: HCC 2998
# HCT-116 = tested on: HCT-116
# HCT-15 = tested on: HCT-15
# HL-60 = tested on: HL-60
# HT-29 = tested on: HT-29
# Hs-578T = tested on: Hs-578T
# IGROV-1 = tested on: IGROV-1
# K562 = tested on: K562
# KM12 = tested on: KM12
# LOX IMVI = tested on: LOX IMVI
# M14 = tested on: M14
# MCF7 = tested on: MCF7
# MDA-MB-435 = tested on: MDA-MB-435
# MDA-N = tested on: MDA-N
# MOLT-4 = tested on: MOLT-4
# Malme-3M = tested on: Malme-3M
# NCI-H226 = tested on: NCI-H226
# NCI-H23 = tested on: NCI-H23
# NCI-H460 = tested on: NCI-H460
# NCI-H522 = tested on: NCI-H522
# OVCAR-3 = tested on: OVCAR-3
# OVCAR-4 = tested on: OVCAR-4
# OVCAR-5 = tested on: OVCAR-5
# OVCAR-8 = tested on: OVCAR-8
# PC-3 = tested on: PC-3
# RPMI-8226 = tested on: RPMI-8226
# RXF 393 = tested on: RXF 393
# SF-295 = tested on: SF-295
# SF-539 = tested on: SF-539
# SK-MEL-2 = tested on: SK-MEL-2
# SK-MEL-5 = tested on: SK-MEL-5
# SK-OV-3 = tested on: SK-OV-3
# SN12C = tested on: SN12C
# SNB-19 = tested on: SNB-19
# SNB-75 = tested on: SNB-75
# SR = tested on: SR
# SW-620 = tested on: SW-620
# T47D = tested on: T47D
# TK-10 = tested on: TK-10
# U-251 = tested on: U-251
# UACC-62 = tested on: UACC-62
# A498 = tested on: A498
# HOP-62 = tested on: HOP-62
# HOP-92 = tested on: HOP-92
# MDA-MB-231 = tested on: MDA-MB-231
# NCI/ADR-RES = tested on: NCI/ADR-RES
# SF-268 = tested on: SF-268
# SK-MEL-28 = tested on: SK-MEL-28
# UACC-257 = tested on: UACC-257
# UO-31 = tested on: UO-31
smiles,measurement,setting,value
COc1cc2c(c(OC)c1OC)-c1ccc(SC)cc1C(=O)CC2,GI50,786-0,< 0.01 µM (active)
same,GI50,A549,< 0.01 µM (active)
same,GI50,ACHN,< 0.01 µM (active)
same,GI50,BT-549,> 100 µM (inactive)
same,GI50,CAKI-1,< 0.0227 µM (active)
same,GI50,CCRF-CEM,< 0.01 µM (active)
same,GI50,COLO 205,< 0.01 µM (active)
same,GI50,DU-145,< 0.01 µM (active)
same,GI50,EKVX,< 0.0382 µM (active)
same,GI50,HCC 2998,< 0.01 µM (active)
same,GI50,HCT-116,< 0.01 µM (active)
same,GI50,HCT-15,< 0.01 µM
same,GI50,HL-60,< 0.01 µM (active)
same,GI50,HT-29,< 0.01 µM (active)
same,GI50,Hs-578T,< 0.01 µM (active)
same,GI50,IGROV-1,< 0.01 µM (active)
same,GI50,K562,< 0.01 µM (active)
same,GI50,KM12,< 0.01 µM (active)
same,GI50,LOX IMVI,< 0.01 µM (active)
same,GI50,M14,< 0.01 µM (active)
same,GI50,MCF7,< 0.01 µM (active)
same,GI50,MDA-MB-435,< 0.01 µM (active)
same,GI50,MDA-N,0.0243 µM (active)
same,GI50,MOLT-4,< 0.01 µM (active)
same,GI50,Malme-3M,< 0.01 µM (active)
same,GI50,NCI-H226,< 0.01 µM (active)
same,GI50,NCI-H23,< 0.01 µM (active)
same,GI50,NCI-H460,< 0.01 µM (active)
same,GI50,NCI-H522,< 0.01 µM (active)
same,GI50,OVCAR-3,< 0.01 µM (active)
same,GI50,OVCAR-4,7.76 µM (inactive)
same,GI50,OVCAR-5,> 100 µM (inactive)
same,GI50,OVCAR-8,< 0.01 µM (active)
same,GI50,PC-3,< 0.01 µM (active)
same,GI50,RPMI-8226,< 0.01 µM (active)
same,GI50,RXF 393,66.8 µM (inactive)
same,GI50,SF-295,< 0.01 µM (active)
same,GI50,SF-539,< 0.01 µM (active)
same,GI50,SK-MEL-2,> 100 µM (inactive)
same,GI50,SK-MEL-5,< 0.01 µM (active)
same,GI50,SK-OV-3,< 0.01 µM (active)
same,GI50,SN12C,< 0.0421 µM (active)
same,GI50,SNB-19,< 0.01 µM (active)
same,GI50,SNB-75,1 µM (active)
same,GI50,SR,< 0.0213 µM (active)
same,GI50,SW-620,< 0.0228 µM (active)
same,GI50,T47D,> 100 µM (inactive)
same,GI50,TK-10,> 100 µM (inactive)
same,GI50,U-251,< 0.01 µM (active)
same,GI50,UACC-62,< 0.01 µM (active)
Nc1nc(N)c(C2=CCNCC2)c(=O)[nH]1,GI50,786-0,> 100 µM (inactive)
same,GI50,A498,> 100 µM (inactive)
same,GI50,A549,> 100 µM (inactive)
same,GI50,ACHN,> 100 µM (inactive)
same,GI50,BT-549,> 100 µM (inactive)
same,GI50,CAKI-1,> 100 µM (inactive)
same,GI50,CCRF-CEM,> 100 µM (inactive)
same,GI50,COLO 205,> 100 µM (inactive)
same,GI50,DU-145,> 100 µM (inactive)
same,GI50,EKVX,> 100 µM (inactive)
same,GI50,HCT-116,> 100 µM (inactive)
same,GI50,HCT-15,> 100 µM
same,GI50,HL-60,> 100 µM (inactive)
same,GI50,HOP-62,> 100 µM (inactive)
same,GI50,HOP-92,> 100 µM (inactive)
same,GI50,HT-29,> 100 µM (inactive)
same,GI50,Hs-578T,> 100 µM (inactive)
same,GI50,IGROV-1,> 100 µM (inactive)
same,GI50,K562,> 100 µM (inactive)
same,GI50,KM12,> 100 µM (inactive)
same,GI50,M14,> 100 µM (inactive)
same,GI50,MCF7,> 100 µM (inactive)
same,GI50,MDA-MB-231,> 100 µM (inactive)
same,GI50,MDA-MB-435,> 100 µM (inactive)
same,GI50,MOLT-4,> 100 µM (inactive)
same,GI50,Malme-3M,> 100 µM (inactive)
same,GI50,NCI-H226,> 100 µM (inactive)
same,GI50,NCI-H23,> 100 µM (inactive)
same,GI50,NCI-H460,> 100 µM (inactive)
same,GI50,NCI-H522,> 100 µM (inactive)
same,GI50,NCI/ADR-RES,> 100 µM (inactive)
same,GI50,OVCAR-3,> 100 µM (inactive)
same,GI50,OVCAR-4,> 100 µM (inactive)
same,GI50,OVCAR-5,> 100 µM (inactive)
same,GI50,OVCAR-8,> 100 µM (inactive)
same,GI50,PC-3,> 100 µM (inactive)
same,GI50,RPMI-8226,> 100 µM (inactive)
same,GI50,RXF 393,> 100 µM (inactive)
same,GI50,SF-268,> 100 µM (inactive)
same,GI50,SF-295,> 100 µM (inactive)
same,GI50,SF-539,> 100 µM (inactive)
same,GI50,SK-MEL-28,> 100 µM (inactive)
same,GI50,SK-MEL-2,> 100 µM (inactive)
same,GI50,SK-MEL-5,> 100 µM (inactive)
same,GI50,SK-OV-3,> 100 µM (inactive)
same,GI50,SN12C,> 100 µM (inactive)
same,GI50,SNB-19,> 100 µM (inactive)
same,GI50,SNB-75,> 100 µM (inactive)
same,GI50,SR,> 100 µM (inactive)
same,GI50,SW-620,> 100 µM (inactive)
same,GI50,T47D,> 100 µM (inactive)
same,GI50,U-251,> 100 µM (inactive)
same,GI50,UACC-257,> 100 µM (inactive)
same,GI50,UACC-62,> 100 µM (inactive)
same,GI50,UO-31,> 100 µM (inactive)
CSC1=NS(=O)(=O)c2cc(C(=O)NN(C)C(=O)c3cc4c(cc3Cl)SC(SC)=NS4(=O)=O)c(Cl)cc2S1,GI50,786-0,> 10 µM (inactive)
same,GI50,A498,> 10 µM (inactive)
same,GI50,A549,> 10 µM (inactive)
same,GI50,ACHN,> 10 µM (inactive)
same,GI50,BT-549,> 10 µM (inactive)
same,GI50,CAKI-1,> 10 µM (inactive)
same,GI50,CCRF-CEM,> 10 µM (inactive)
same,GI50,COLO 205,> 10 µM (inactive)
same,GI50,DU-145,> 10 µM (inactive)
same,GI50,EKVX,> 10 µM (inactive)
same,GI50,HCC 2998,> 10 µM (inactive)
same,GI50,HCT-116,> 10 µM (inactive)
same,GI50,HCT-15,> 10 µM
same,GI50,HL-60,> 10 µM (inactive)
same,GI50,HOP-62,> 10 µM (inactive)
same,GI50,HOP-92,> 10 µM (inactive)
same,GI50,HT-29,> 10 µM (inactive)
same,GI50,Hs-578T,> 10 µM (inactive)
same,GI50,IGROV-1,> 10 µM (inactive)
same,GI50,K562,> 10 µM (inactive)
same,GI50,KM12,> 10 µM (inactive)
same,GI50,LOX IMVI,> 10 µM (inactive)
same,GI50,M14,> 10 µM (inactive)
same,GI50,MCF7,9.75 µM (inactive)
same,GI50,MDA-N,> 10 µM (inactive)
same,GI50,MOLT-4,> 10 µM (inactive)
same,GI50,Malme-3M,> 10 µM (inactive)
same,GI50,NCI-H226,> 10 µM (inactive)
same,GI50,NCI-H23,> 10 µM (inactive)
same,GI50,NCI-H460,> 10 µM (inactive)
same,GI50,NCI-H522,> 10 µM (inactive)
same,GI50,NCI/ADR-RES,> 10 µM (inactive)
same,GI50,OVCAR-3,> 10 µM (inactive)
same,GI50,OVCAR-4,> 10 µM (inactive)
same,GI50,OVCAR-5,> 10 µM (inactive)
same,GI50,OVCAR-8,> 10 µM (inactive)
same,GI50,PC-3,> 10 µM (inactive)
same,GI50,RPMI-8226,> 10 µM (inactive)
same,GI50,RXF 393,> 10 µM (inactive)
same,GI50,SF-268,> 10 µM (inactive)
same,GI50,SF-295,> 10 µM (inactive)
same,GI50,SF-539,> 10 µM (inactive)
same,GI50,SK-MEL-28,> 10 µM (inactive)
same,GI50,SK-MEL-2,> 10 µM (inactive)
same,GI50,SK-MEL-5,> 10 µM (inactive)
same,GI50,SK-OV-3,> 10 µM (inactive)
same,GI50,SN12C,> 10 µM (inactive)
same,GI50,SNB-19,> 10 µM (inactive)
same,GI50,SNB-75,> 10 µM (inactive)
same,GI50,SR,> 10 µM (inactive)
same,GI50,SW-620,> 10 µM (inactive)
same,GI50,T47D,> 10 µM (inactive)
same,GI50,TK-10,> 10 µM (inactive)
same,GI50,U-251,> 10 µM (inactive)
same,GI50,UACC-257,> 10 µM (inactive)
same,GI50,UO-31,> 10 µM (inactive)

# — ChEMBL document CHEMBL1201862, “PubChem BioAssay data set” (2004)
